The molecules below were run on COV434 cells (assay: NAD cell assay (NAD cycling method)). Details: cellular NAD level, 200 uM for 4 hr, normalised to protein, mole per mole comparison with NaR parent.
Format: cell-based
Description: NAD levels were assayed based on the NAD cycling method of Zhu and Rand, PLoS One (2012), herein incorporated by reference. COV434 cells were maintained in 6 well plates and treated with the indicated compounds at a concentration of 200 uM for 4 hr. Media was removed, plates were washed in cold PBS and cells were scraped down in NAD extraction buffer containing 10 mM nicotinamide, 50 mM Tris HCl, 0.1% Triton X-100. Cells were homogenised by sonication for 5 seconds, and samples were centrifuged at 7,000 g for 5 min at 4 degrees. Aliquots were taken for later protein assay, and samples were then passed through 10 kDa amicon filters at 14,000 g, 30 min at 4 degrees to remove proteins from the sample. Each sample was measured in technical triplicate, with 25 μL sample added to 100 μL ADH cycling mix (0.2 mg/ml alcohol dehydrogenase enzyme, 2% ethanol, 100 mM Tris pH 8.5). Samples were allowed to cycle for 10 min at room temperature, followed by 50 μL addition of an MTT/PMS solution (0.1 mM phenazine methosulfate, 0.8 mM 3(4,5-Dimethylthiazol-2-yl)-2,5-diphenyltetrazolium bromide), 100 mM Tris-HCl pH 8.5). Plates were then incubated for 15 min and absorbance was measured at 570 nm. NAD concentrations were extrapolated from a standard curve, and normalised to protein concentrations determined by BCA protein assay.
The adjusted fold increase is obtained through a direct comparison on a mole per mole basis between the compared salt and its parent counterpart. In other words, the instant compounds derived from NaR parent molecule will only have their NAD activity level measured against NaR based on the same amount (mole) of salt tested in the cell. For example, the fold increase of compound I-002 is based on the NAD activity observed in a direct comparison for the same amount of mole in the cell and that of the NaR parent. Similarly, the fold increase of i-003 is based on the direct comparison with NaR.

| Molecule | Fold increase adjusted for MW (compared to parent molecule) |
| --- | --- |
| (2S,3S)-2-Ammonio-3-methylpentanoate compound with 1-((2R,3R,4S,5R)-3,4-dihydroxy-5-(hydroxymethyl)tetrahydrofuran-2-yl)pyridine-1-ium-3-carboxylate (1:1) [Compound I-002] | 1.34 fold |
| O=C([O-])c1ccc[n+]([C@@H]2O[C@H](CO)[C@@H](O)[C@H]2O)c1 [NaR, reference compound] | 1.0 fold |
| (S)-2-Ammonio-3-(1H-indol-3-yl)propanoate compound with 1-((2R,3R,4S,5R)-3,4-dihydroxy-5-(hydroxymethyl)tetrahydrofuran-2-yl)pyridine-1-ium-3-carboxylate (1:1) [Compound I-003] | 1.76 fold |

Source: patent publication US12661370B2, “Amino acid salts of nicotinic acid ribosides as anti-aging agents” (Jumpstart Fertility Pty Ltd, priority 2018, dated 2026)
